{"source": "patent US12390467B2", "about": "“Necroptosis inducers or autophagy inhibitors or a combination thereof” (The University of Toledo, priority 2018, dated 2025)", "assay_type_in_all_cases": "cell-based", "key": {"[1]": {"system": "β-catenin in MDA-MB468", "experiment": "Western blot, β-catenin, MDA-MB468", "protocol": "The TNBC cells were seeded in a culture flask and incubated for 24 h. The cells were then incubated with different concentrations of the lead compounds and re-incubated for an additional 12 or 24 h. […] The bicinchoninic acid (BCA) was used to determine protein concentration in the cell extracts (G-BIOSCIENCES, St. Louis, MO, USA). […] The membrane was blocked using 5% milk in Tris-buffered Tween 20 saline for 30 minutes. […] A ChemiDoc™ MP System imaging system from Bio-Rad (Hercules, CA, USA) was used for blots reading. Blots were used to obtain the protein bands, followed by quantification of the bands using image J software (NIH, Bethesda, MD, USA). All of the data were expressed as the ratio of β-actin or GAPDH."}, "[2]": {"system": "EMT and Wnt/β-catenin signaling proteins in BT-20 cells", "experiment": "Western blot, EMT and Wnt/β-catenin proteins, BT-20", "protocol": "(§1) The TNBC cells were seeded in a culture flask and incubated for 24 h. The cells were then incubated with different concentrations of the lead compounds and re-incubated for an additional 12 or 24 h. […] The bicinchoninic acid (BCA) was used to determine protein concentration in the cell extracts (G-BIOSCIENCES, St. Louis, MO, USA). […] The membrane was blocked using 5% milk in Tris-buffered Tween 20 saline for 30 minutes. The membrane was then incubated overnight with primary antibodies against Bak, Bax, Bcl-2, caspase9, caspase 3, caspase 7, PARP, cytochrome c, N-cadherin, E-cadherin, c-Myc, dishevelled segment polarity protein 3 (DVL3), dishevelled segment polarity protein 2 (DVL2), Vimentin, mitogen-activated protein kinase kinase (MAPKK also known as MEK1/2), β-catenin, low-density lipoprotein receptor-related protein 6 (LRP6), receptor-interacting protein kinase (RIP), phosphorylated RIP (p-RIP), mixed lineage kinase domain like pseudokinase(MLKL), Caspase 8, light chain 3 (LC3), lysosomal-associated membrane protein 1 (LAMP1), unc-51 like autophagy activating kinase 1 (ULK1), ras associated protein 7 (Rab7), ras associated protein 5 (Rab5), Beclin 1, mechanistic target of rapamycin (mTOR), tumor necrosis factor alpha (TNF-α), tumor necrosis factor receptor 1 (TNFR1), tumor necrosis factor receptor 2 (TNFR2), Fas-associated protein with death domain (FADD), Fas ligand (Fas), TNF-related apoptosis-inducing ligand (TRAIL), death receptor 5 (DR5), Tumor necrosis factor receptor type 1-associated DEATH domain (TRADD), receptor-interacting protein kinase 3 (RIP3), β-actin or GAPDH in 1:1000 dilution in 5% milk or 5% BSA at 4° C. Horseradish peroxidase-labeled (HRP) anti-rabbit or anti-mouse secondary antibodies (1:5,000 dilution) were added and incubated the next day for an additional 1 h. A ChemiDoc™ MP System imaging system from Bio-Rad (Hercules, CA, USA) was used for blots reading. Blots were used to obtain the protein bands, followed by quantification of the bands using image J software (NIH, Bethesda, MD, USA). All of the data were expressed as the ratio of β-actin or GAPDH."}, "[3]": {"target": "T1, ABCG2 transporter (S1M180 cells) (Homo sapiens, UniProt Q9UNQ0, R482G)", "T1 construct": "intracellular accumulation of rhodamine 123 in ABCG2 overexpressing S1M180 cells; endogenous in cells; host or cells: S1M180 colon cancer cells", "T1 sequence (Q9UNQ0 whole entry R482G, one chain of several)": "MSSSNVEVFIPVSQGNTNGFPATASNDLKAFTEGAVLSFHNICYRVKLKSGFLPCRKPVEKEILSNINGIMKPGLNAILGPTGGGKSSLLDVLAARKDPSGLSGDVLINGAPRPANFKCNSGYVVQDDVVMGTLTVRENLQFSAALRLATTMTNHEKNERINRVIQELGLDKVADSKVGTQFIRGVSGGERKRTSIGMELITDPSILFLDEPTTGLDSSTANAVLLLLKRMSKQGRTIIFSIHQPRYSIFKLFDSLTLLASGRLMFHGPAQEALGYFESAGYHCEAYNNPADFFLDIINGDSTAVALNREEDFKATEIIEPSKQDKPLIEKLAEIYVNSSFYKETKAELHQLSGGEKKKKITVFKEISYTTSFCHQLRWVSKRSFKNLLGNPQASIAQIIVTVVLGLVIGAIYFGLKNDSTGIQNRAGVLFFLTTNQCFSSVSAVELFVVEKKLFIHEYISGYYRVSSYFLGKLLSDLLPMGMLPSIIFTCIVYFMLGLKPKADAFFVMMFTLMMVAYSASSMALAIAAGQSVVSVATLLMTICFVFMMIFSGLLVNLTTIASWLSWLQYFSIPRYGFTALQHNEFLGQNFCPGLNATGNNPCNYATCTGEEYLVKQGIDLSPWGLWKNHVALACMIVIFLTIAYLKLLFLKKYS", "experiment": "Intracellular accumulation of rhodamine 123", "settings": "0.05-1 μM", "protocol": "FIG. 26: TPH104 reverses multidrug resistance by blocking the function of ABCG2 transporter. The effect of TPH104 and nilotinib on the intracellular accumulation of rhodamine 123 in ABCG2 overexpressing S1M180 cells. The top image is a graph showing the concentration-dependent increase in the accumulation of rhodamine 123 in S1M180 cells incubated with TPH104. Red filled=control; sky blue filled=0.05 μM; brown filled=0.1 μM; dark blue filled=0.3 μM; lime green filled=1 μM of TPH104, respectively, and olive green=nilotinib, 5 μM. The bottom image is a bar graph representing the relative rhodamine 123 accumulation levels. The data shown as means±SEM of three independent experiments. *p<0.05; ***p<0.001 compared to the control."}, "[4]": {"system": "BT-20 cells", "experiment": "Hoechst 33258 assay and live cell morphology, BT-20", "protocol": "FIGS. 8A-8B: Representative images of morphological changes in BT-20 TNBC cells incubated with 0, 1, or 3 μM of TPH104 (FIG. 8A). The images were taken using an incuCyte live cell imaging instrument.\n(§2) To detect DNA fragmentation following apoptotic cell death, the Hoechst 33258 assay was performed. Briefly, TNBC cells were seeded in a 6-well plate at a density of 10,000 cells/well over 18-mm cover slips and incubated for 24 h. Following incubation, TPH104 (1, 2, or 5 μM), or vehicle were added for an additional 12 h. Subsequently, Hoechst 33258 (Sigma Aldrich, USA) was added to the cells at a concentration of 0.5 mg/mL and incubated for 30 minutes at 37° C. The cells were then washed 3× with phosphate buffered saline (PBS). Subsequently, the cover slips were mounted on a microscope glass/slide and allowed to dry for at least 2 h. Stained cells from each cover slip were captured from randomly selected fields under a fluorescent microscope (EVOS-FLC cell imaging system, Thermofisher scientific) to qualitatively determine the proportion of viable and apoptotic cells based on their relative fluorescence and nuclear fragmentation as previously described."}, "[5]": {"system": "TRAIL, DR5, TRADD, RIP3, TNF-α, TNFR1, FADD, Fas in BT-20 TNBC cells", "experiment": "Western blot, TRAIL and TNF pathway proteins", "protocol": "as §1, with “Horseradish peroxidase-labeled (HRP) anti-rabbit or anti-mouse secondary antibodies (1:5,000 dilution) were added and incubated the next day for an additional 1 h.” left out"}, "[6]": {"system": "MDA-MB468 cells", "experiment": "Nuclear condensation and morphology, MDA-MB468", "protocol": "as §2"}, "[7]": {"system": "RIP, p-RIP, MLKL, caspase 8 in MDA-MB468 cells", "experiment": "Western blot, necroptotic proteins, MDA-MB468", "protocol": "as §1"}, "[8]": {"system": "Bak, Bax, Bcl-2, caspases, PARP, cytochrome c in BT-20 cells", "experiment": "Western blot, apoptotic proteins", "protocol": "as §1"}}}
{"compound": "COc1ccc(O)c(/C=N/Nc2ncnc3scc(-c4ccc(C)cc4)c23)c1", "note": "[TPH104]", "values": [{"measurement": "expression of β-catenin", "setting": "[1]", "result": "significantly decreased"}, {"measurement": "expression levels of DVL3, DVL2, vimentin, and MEK1/2", "setting": "[2]; 2 μM and 5 μM", "result": "significantly decreased"}, {"measurement": "expression of N-cadherin", "setting": "[2]; 2 μM and 5 μM", "result": "significantly decreased"}, {"measurement": "expression of c-Myc", "setting": "[2]; 0.5, 1, 2, and 5 μM", "result": "significantly decreased"}, {"measurement": "expression of β-catenin or LRP6", "setting": "[2]; 0.5, 1, 2, and 5 μM", "result": "did not significantly alter"}, {"measurement": "expression of E-cadherin", "setting": "[2]; 1, 2, or 5 μM", "result": "significantly increased"}, {"measurement": "intracellular accumulation of rhodamine 123", "setting": "[3]", "result": "increased"}, {"measurement": "cellular shrinkage", "setting": "[4]; 1 μM and 3 μM", "result": "did not induce cellular shrinkage"}, {"measurement": "rupture of the cellular membrane", "setting": "[4]; 1 μM and 3 μM", "result": "did induce rupture"}, {"measurement": "nuclear condensation", "setting": "[4]; 1, 2, and 5 μM, 12 h", "result": "did not show nuclear condensation"}, {"measurement": "TNF-α", "setting": "[5]; 0.5, 1, 2, and 5 μM", "result": "no significant change"}, {"measurement": "expression of TNFR1, FADD, and Fas", "setting": "[5]; 0.5, 1, 2, and 5 μM", "result": "significantly inhibited"}, {"measurement": "TRAIL, its receptor (DRS), RIP3, and TRADD", "setting": "[5]; 0.5, 1, 2, or 5 μM", "result": "significant increase"}, {"measurement": "nuclear condensation or cellular shrinkage", "setting": "[6]", "result": "did not produce"}, {"measurement": "expression of caspase 8", "setting": "[7]; 0.5, 1, 2, and 5 μM", "result": "significantly decreased"}, {"measurement": "expression levels of MLKL", "setting": "[7]; 1, 2, and 5 μM", "result": "significantly increased"}, {"measurement": "expression of p-RIP", "setting": "[7]; 1, 2, and 5 μM", "result": "significantly increased"}, {"measurement": "expression of RIP1", "setting": "[7]; 1, 2, or 5 μM for 12 h", "result": "significantly increased"}, {"measurement": "expression levels of caspase 3 and cleaved caspase 3", "setting": "[8]; 2 μM or 5 μM", "result": "significantly decreased"}, {"measurement": "expression levels of caspase 7 and caspase 9", "setting": "[8]; 0.5, 1, 2, and 5 μM", "result": "did not significantly alter"}, {"measurement": "expression of Bcl2", "setting": "[8]; 0.5, 1, 2, and 5 μM", "result": "increased"}, {"measurement": "expression of Bak", "setting": "[8]; 0.5, 1, 2, and 5 μM, BT-20 and MDA-MB468", "result": "not significantly altered"}, {"measurement": "PARP cleavage", "setting": "[8]; 1, 2, and 5 μM", "result": "significantly cleaved"}, {"measurement": "expression of cytochrome c", "setting": "[8]; 1, 2, and 5 μM", "result": "significantly decreased"}, {"measurement": "expression of Bax", "setting": "[8]; 1, 2, and 5 μM, BT-20 and MDA-MB468", "result": "significantly decreased"}]}
